Laboratory results taken from publication PMC12867150, “A fungi-derived cyclic peptide enhances Th9-mediated antitumor immunity by targeting ZAP70 and SREBP1” (The Journal of Clinical Investigation, 2025).
Values joined by “and” are separate entries in the source; they are usually repeats but may differ in a detail not shown here. Identical values can stand only once. Counter-ions that a name gives are not always drawn.

How the values were obtained:
[1] = system: gene expression in Th9 cells; assay: Bulk RNA-seq of Th9 cells (Figure 3A-D, 7G, S5B, S8G-H); type: cell-based, mouse; set-up: key to Il13 expression (RNA-seq) / Batf expression (RNA-seq) / Il4 expression (RNA-seq) / Il5 expression (RNA-seq) / Il9 expression (RNA-seq) / Tnfsf15 expression (RNA-seq) / Tnf expression (RNA-seq) / Lta expression (RNA-seq) / Fasl expression (RNA-seq) / Tnfsf9 expression (RNA-seq) / Tnfsf14 expression (RNA-seq): FPKM (fragments per kilobase of transcript per million mapped reads); conditions: for cluster 2 genes (calcium ion transport, glycolysis, oxidative phosphorylation, ERK signaling) / lipid biosynthesis genes: RNA-seq clustering; for Fpkm of Slc2a1: Supplemental Figure 5B
Protocol: RNA integrity and concentration were assessed by Majorbio Technologies. RNA-seq libraries were constructed following standard Illumina protocols and sequenced using a paired-end strategy on an Illumina platform.
Raw sequencing reads were quality filtered and adapter trimmed using Trim Galore (v0.6.x) and then aligned to the mouse reference genome (GRCm38) with HISAT2 (v2.2.x). Gene-level quantification was performed using featureCounts (v2.0.x) to obtain raw read counts, which were subsequently normalized as fragments per kilobase of transcript per million mapped reads for exploratory analyses and data visualization.
Differential gene expression analysis was conducted using DESeq2 (v1.44.0) in R, with significance thresholds set at an adjusted P < 0.05 and absolute fold change ≥1.5. Visualization of transcriptomic profiles included volcano plots generated via ggplot2 (v3.5.1) and heatmaps rendered using pheatmap (v1.0.12), based on raw expression values.
Gene expression clustering was conducted using the R package ClusterGVis (v0.1.2).

Th9 cells = assay: IL-9+ Th9 cells with fatostatin (Figure 7A); type: cell-based, mouse; set-up: IL-9 expression in Th9 cells: unit not given here; conditions: for IL-9 expression in Th9 cells: Figure 7A, individual replicates, one per column (n = 4); for IL-9 production: fatostatin 5 μM, alone or with EpA 10 μM, result in words
Text: (B) Quantitative PCR analysis of Il9 mRNA expression in cells treated as in A (n = 3). (C–F) Flow cytometric analysis of TNF-α production (C), CD69 expression (D), PD-1 expression (E), and mitochondrial membrane potential measured by MitoTracker staining (F) in Th9 cells treated with the indicated conditions (n = 4 for C–E; n = 3 for F). […] Cluster 2 includes genes related to calcium signaling, glycolysis, oxidative phosphorylation, and ERK signaling; cluster 6 includes genes associated with lipid biosynthesis. […] Statistical significance was determined using 1-way ANOVA followed by Tukey’s post hoc test (A–F and H–J). Data are presented as mean ± SEM (A–F and H–J). **P < 0.01, ***P < 0.001, ****P < 0.0001. […] It is left out because it is the vehicle control, not a substance.
T cell polarization was initiated under plate-bound anti-CD3 (2 μg/mL, clone 17A2, BioXCell, catalog BE0002) and soluble anti-CD28 (1 μg/mL, clone 37.51, BioXCell, catalog BE0015-1) stimulation, with the addition of cytokines and neutralizing antibodies specific to each subset. For Th9 cells, these included IL-4 (10 ng/mL, Peprotech, catalog 400-04), TGF-β (1 ng/mL, EPOTO Biotech, catalog HF-2021), anti–IL-12 (5 μg/mL, clone C17.8, BioXCell, catalog BE0051), and anti–IFN-γ (10 μg/mL, clone XMG1.2, BioXCell, catalog BE0055); for Th1 cells, these included IL-12 (10 ng/mL, GenScript, catalog Z03211-50) and anti–IL-4 (5 μg/mL, clone 11B11, BioXCell, catalog BE0045); for Th2 cells, these included IL-4 (50 ng/mL), anti–IFN-γ (20 μg /mL), anti–IL-12 (5 μg/mL), Th17 cells: IL-6 (20 ng/mL, EPOTO Biotech, catalog MF-1006), TGF-β (1 ng/mL), IL-1β (10 ng/mL, Peprotech, catalog AF-211-11B), anti–IFN-γ (10 μg/mL), anti–IL-12 (5 μg/mL), and anti–IL-4 (5 μg/mL); and for Tregs, these included TGF-β (3 ng/mL). After 3 days of initial culture, cells were either collected for downstream assays or continued in extended culture with refreshed cytokines to maintain lineage commitment.
[…] Dead cells were detected using Fixable Viability Dye eFluor 780 (eBioscience, catalog 65-0865).

human Th9 cells = assay: Human Th9 differentiation, IL-9 by flow cytometry (Figure 8A-B, S9A); type: cell-based; conditions: for intracellular IL-9 expression in human Th9 cells: flow cytometry, Supplemental Figure 9A; for IL-9 production in human CD4⁺ T cells (flow cytometric analysis): Figure 8B, Th9-polarizing conditions, individual replicates, one per column (n = 4)
Protocol: Naive human CD4^+ T cells were isolated from PBMCs obtained from healthy donors using the EasySep Human Naive CD4^+ T Cell Isolation Kit II ([…] Technologies, catalog 17555), according to the manufacturer’s protocol. Isolated T cells were cultured in OptiVitro T Cell Medium SF (Excell Bio, catalog TE000-N022) supplemented with recombinant human IL-2 (100 U/mL, Novoprotein, catalog C013). T cell activation was achieved using plate-bound anti-CD3 (5 μg/mL) and soluble anti-CD28 antibodies (2 μg/mL).
For Th9 polarization, cultures were supplemented with IL-4 (10 ng/mL, PeproTech, catalog AF-200-04), TGF-β (1 ng/mL), and neutralizing anti–IFN-γ monoclonal antibody (10 μg/mL, clone B27, BioXcell, catalog BE0245). After 3 days of initial culture, cells were either collected for downstream assays or continued in extended culture with refreshed cytokines to maintain lineage commitment without antibodies. Th9 cells were collected at days 4, 5, and 6 for subsequent in vitro assays. For adoptive transfer studies, day 4–cultured Th9 cells were washed and prepared for intravenous injection.
Details regarding staining panels (human and mouse), reagents (including clones and catalog numbers), acquisition settings, compensation/controls, and analysis procedures are provided in Supplemental Methods.
MH9A4, Biolegend, Cat. No. 507605, PE/Cy7, clone MH9A4, Biolegend, Cat. No. […]
clone Mab11, Biolegend, Cat. No. 502908), Perforin (APC, clone dG9, Biolegend, Cat.
Flow cytometric acquisition was performed using a BD Fortessa or Cytek Aurora cytometer. Data were analyzed with FlowJo software (v10.8.1 or newer). Fluorescence compensation, isotype-matched controls, and fluorescence-minus-one (FMO) controls were applied as appropriate for multicolor panel validation. […]

[2] = EpA + fatostatin, result in words
[3] = EpA vs control, adjusted P < 0.05, fold change ≥1.5
[4] = Th9, day 4, samples EPA_1 to EPA_3

Compound: CCCc1cc(-c2nc(-c3ccc(C)cc3)cs2)ccn1 [fatostatin, fatostatin hydrobromide, reference compound]
- cluster 2 genes (calcium ion transport, glycolysis, oxidative phosphorylation, ERK signaling) ([1]; result in words): further enhanced
- lipid biosynthesis genes ([1]; result in words): further suppressed
- IL-9 expression in Th9 cells (Th9 cells; single agent): 25.4 and 26.8 and 28.6 and 27.5
- IL-9 production (Th9 cells): significantly upregulated IL-9 production
- intracellular IL-9 expression in human Th9 cells (human Th9 cells; replicate 1): 23.3%
- intracellular IL-9 expression in human Th9 cells (human Th9 cells; replicate 2): 24.1%
- intracellular IL-9 expression in human Th9 cells (human Th9 cells; replicate 3): 23.7%
- intracellular IL-9 expression in human Th9 cells (human Th9 cells; replicate 4): 23.5%
- IL-9 production, human EpA-Th9 (human Th9 cells; with fatostatin, result in words): further augmented

Compound: anteiso-C15 Leu7 surfactin [EpA]
- Fads1 expression [1, 2]: reduced expression
- Srebp1 expression [1, 2]: reduced expression
- number of downregulated genes [1, 3]: 271
- number of upregulated genes [1, 3]: 228
- cluster 2 genes (calcium ion transport, glycolysis, oxidative phosphorylation, ERK signaling) ([1]; result in words): notably upregulated
- lipid biosynthesis genes ([1]; result in words): progressively downregulated
- Fpkm of Slc2a1 ([1]; replicate 1): 48.3562 Fpkm
- Fpkm of Slc2a1 ([1]; replicate 2): 48.7446 Fpkm
- Fpkm of Slc2a1 ([1]; replicate 3): 49.9027 Fpkm
- Batf expression (RNA-seq) [1, 4]: 93.0998 and 96.722 and 96.1164
- Fasl expression (RNA-seq) [1, 4]: 9.708 and 9.458 and 10.2176
- Il4 expression (RNA-seq) [1, 4]: 8.523 and 8.979 and 8.835
- Il5 expression (RNA-seq) [1, 4]: 0.7687 and 0.6368 and 0.9066
- Il9 expression (RNA-seq) [1, 4]: 619.89 and 651.961 and 648.029
- Il13 expression (RNA-seq) [1, 4]: 15.584 and 17.9728 and 14.2881
- Lta expression (RNA-seq) [1, 4]: 41.371 and 42.2064 and 41.7705
- Tnf expression (RNA-seq) [1, 4]: 5.46 and 5.834 and 6.11
- Tnfsf9 expression (RNA-seq) [1, 4]: 1.423 and 1.362 and 1.3365
- Tnfsf14 expression (RNA-seq) [1, 4]: 5.499 and 5.503 and 5.511
- Tnfsf15 expression (RNA-seq) [1, 4]: 0.1165 and 0.1206 and 0.07294
- SLC2A1 expression ([1]; result in words): markedly upregulated
- Th9 cytokines (Il9, Il4, Il5, Il13) and Spi1, Batf expression ([1]; result in words): upregulated
- cytotoxic effector molecules Tnf, Lta, Fasl ([1]; result in words): strong upregulation
- IL-9 expression in Th9 cells (Th9 cells): 74.4 and 75.9 and 77.3 and 78.9
- IL-9 expression in Th9 cells (Th9 cells; single agent): 46.6 and 46.1 and 47.5 and 45.4
- IL-9 production (Th9 cells): further enhanced when combined with EpA
- IL-9 production in human CD4⁺ T cells (flow cytometric analysis) (human Th9 cells; Day5): 43.3 and 42.8 and 42.9 and 42
- IL-9 production in human CD4⁺ T cells (flow cytometric analysis) (human Th9 cells; Day6): 34.5 and 32.5 and 32.7 and 34.1
- IL-9 expression, human Th9 (human Th9 cells; day 5 to day 6, result in words): significantly elevated IL-9 expression
- intracellular IL-9 expression in human Th9 cells (human Th9 cells; replicate 1): 22%
- intracellular IL-9 expression in human Th9 cells (human Th9 cells; replicate 2): 24.8%
- intracellular IL-9 expression in human Th9 cells (human Th9 cells; replicate 3): 22.1%
- intracellular IL-9 expression in human Th9 cells (human Th9 cells; replicate 4): 24.3%
